We go through two compounds from patent US20050196466A1, “Process for inhibiting cell proliferation” (Pharmacyclics, Inc., priority 2004, published 2005).

Data set [1] has as its system A549 cells. In words: MTT assay, plateau phase A549 cells treated with 1-hydroxypyridine-2-thione, MGd and zinc. Format: cell-based, human. The text has this: (§1) Final mannitol concentration was 0.31% in all wells.
(Tetrazolium dyes change colour on reduction, which living cells bring about.)

Data set [2] has as its system Ramos cells. Put plainly: Cytotoxicity by propidium iodide uptake, flow cytometry. The following applies: agent alone. On the technique in general: In flow cytometry, cells or beads pass a laser one at a time.
Description: Gated cells with fluorescence at 585 nm from two cultures are shown for each time point. Error bars indicate standard deviation.
In other experiments (FIG. 11), Ramos cells grown in T-25 flasks were treated with a compound of Formula I (where M=Gd) (10 or 50 μM) and zinc (25 or 50 μM) for 1-2 days, Coulter counted, and analyzed by flow cytometry using propidium iodide.
Data set [3] deals with A549 cells. In words: MTT reduction proliferation assay, microtiter plate, A549 cells. Format: cell-based, human. The following applies: zinc by itself at 100 μM.
Excerpt: as §1

Structures are written as SMILES.

Turning to `c1cc[n+]2c(c1)[S][Zn]1([O]2)[O][n+]2ccccc2[S]1` [ZnHPT, Zinc complex of 1-hydroxypyridine-2-thione], in data set [1] (ZnHPT by itself at 0.625 μM, formed in situ from zinc acetate and 1-hydroxypyridine-2-thione, after one day (FIG. 12)), the “effect on A549 cells” value was “no significant effect”. The “cytotoxic dose of the zinc complex of 1-hydroxypyridine-2-thione” value in data set [1] (in the presence of a compound of formula 1) is “lowered”.
On to `CC(=O)[O-].CC(=O)[O-].[Zn+2]` [zinc, zinc acetate], for which, in data set [2], the “cytotoxicity as assessed by flow cytometry after staining with propidium iodide” value was “did not increase cytotoxicity”. For the same compound, the “effect on A549 cells” value in data set [3] (after one day) and in data set [3] (after three days) was “no significant effect” in each case.
